Values quoted from earlier work, collected in paper PMC8739840, “Structural and Molecular Insight into Piperazine and Piperidine Derivatives as Histamine H3 and Sigma-1 Receptor Antagonists with Promising Antinociceptive Properties” (ACS Chemical Neuroscience, 2021).

Legend:
[1] = quoted for comparison of basicity; no reference given; cited from earlier work
[2] = tested on: σ2R; conditions: read-out: σ2R IC50 (binding); cited from earlier work
[3] = tested on: σ2 receptor; conditions: cited from earlier work
[4] = biological target: σ1 receptor; conditions: read-out: EC50, functional agonism of σ1 receptor-mediated calcium flux; cited from earlier work

Structure (SMILES) | pKa [1] | IC50 [2] | agonist activity in σ2 receptor-mediated calcium flux functional assay [3] | IC50 ([3]; read-out: IC50, decrease of haloperidol-induced calcium release (antagonist)) | EC50 [4]
CN(C)c1ccncc1 [DMAP] | 9.2 |  |  |  | 
Clc1ccc(CCCOCCCN2CCCCC2)cc1 [PIT, Pitolisant] |  | 8.55 nM | did not elicit agonist activity | 10000 nM | 402 nM
